Data published in publication PMC7912516, “New Antimicrobials Based on the Adarotene Scaffold with Activity against Multi-Drug Resistant Staphylococcus aureus and Vancomycin-Resistant Enterococcus” (Antibiotics, 2021).
“And” between values parts separate entries of the source, which are not always exact repeats. Identical values can stand only once.

Tested on: tumor cell line IGROV-1
Assay: not given
Conditions: ± SD, ref [13], read-out: IC50 (concentration required for 50% inhibition of cell growth); cited from earlier work

Row | SMILES | IC50 [nM]
1 | O=C(/C=C/c1ccc(-c2ccc(O)c(C34CC5CC(CC(C5)C3)C4)c2)cc1)Nc1ccc(O)cc1 [Compound 6] | 6600 ± 500
2 | O=C(O)/C(F)=C\c1ccc(-c2ccc(O)c(C34CC5CC(CC(C5)C3)C4)c2)cc1 [Compound 7] | > 3000
3 | C/C(=C\c1ccc(-c2ccc(O)c(C34CC5CC(CC(C5)C3)C4)c2)cc1)C(=O)O [Compound 8] | 7190 ± 1270
4 | O=C(O)CCc1ccc(-c2ccc(O)c(C34CC5CC(CC(C5)C3)C4)c2)cc1 [Compound 10] | 48400 ± 880

Same assay, conditions: ± SD, ref [14], read-out: IC50 (concentration required for 50% inhibition of cell growth); cited from earlier work

Row | SMILES | IC50 [nM]
5 | O=C(O)/C=C/c1ccc(-c2cc3c(c(C45CC6CC(CC(C6)C4)C5)c2)OCCO3)cc1 [Compound 12] | 230 ± 70
6 | CC(=O)NCc1cc(-c2ccc(/C=C/C(=O)O)cc2)cc(C23CC4CC(CC(C4)C2)C3)c1O [Compound 13] | 1240 ± 70
7 | O=Cc1cc(-c2ccc(/C=C/C(=O)O)cc2)cc(C23CC4CC(CC(C4)C2)C3)c1O [Compound 15] | 1640 ± 30

Same assay, conditions: ± SD, ref [15], read-out: IC50 (concentration required for 50% inhibition of cell growth); cited from earlier work

Row | SMILES | IC50 [nM]
8 | O=C(/C=C/c1ccc(-c2ccc(O)c(C34CC5CC(CC(C5)C3)C4)c2)cc1)NO [Compound 5] | 1100 ± 600

Tested on: S. aureus strain 1 (MDR clinical isolate, MRSA, mecA positive)
Assay: MIC/MBC by broth micro-dilution (CLSI)
Format: cell-based, Staphylococcus aureus
Conditions: S. aureus Strain 1; modal value of three replicates
Description: (§1) The compounds were initially tested with a methicillin-resistant S. aureus and an E. faecalis clinical isolates (details in the experimental section), two MDR strains according to definition by Magiorakos et al.. The activity of studied compounds was assessed by broth micro-dilution method. Minimal Inhibitory Concentration (MIC), and Minimal Bactericidal Concentration (MBC) were determined and possible bacteriostatic or bactericidal activity was also investigated.
(§2) MICs and MBCs were determined according to CLSI (Clinical and Laboratory Standards Institute) guidelines, in triplicate. Results are shown as modal values of the three replicates. According to MIC and MBC data, the killing rate was calculated as the ratio between MBC and MIC on which basis it is possible to define the compounds tested as bactericides (killing rate = 1–4), or bacteriostatic (killing rate > 4).
(§3) Preparation of the solution containing molecules: for each molecule to be tested, solutions were made as DMSO stock, with a concentration of 2.560 mg/mL. Scalar dilutions were than prepared directly on plates by using Mueller Hinton Broth (MHB) as a growth medium (range 0.5–256 µg/mL).
(§4) Bacterial suspension preparation: cryostrains preserved at −80 °C were recovered by incubation in growth medium (Brain Heart Infusion Broth, BHI) for 24–48 h at 35 ± 2 °C followed by passages in agar growth medium (Columbia Blood Agar). Colonies with less than 30 h were suspended in MHB with the purpose to prepare a bacterial suspension with a turbidity of 0.5 MF, containing approximately 1.5 × 10^8 cfu/mL. This suspension was than diluted in MHB until reaching a final concentration of 5 × 10^4 CFU/well. Simultaneously, check in broth-microdilution only with solvent (in order to exclude that the effect of growth inhibition might be due to the drug solution solvent), positive growth control in absence of DMSO and drug, and negative purity control only with injection broth were performed.
S. aureus strain 1 (collection, MDR): mecA positive; MRSA, β-lactamase positive, resistant to ciprofloxacin, gentamicin and erythromycin.

Row | MIC | SMILES
9 | 64 µg/mL | O=C(/C=C/c1ccc(-c2ccc(O)c(C34CC5CC(CC(C5)C3)C4)c2)cc1)NO [Compound 5]
10 | >= 32 µg/mL and >256 µg/mL | O=C(/C=C/c1ccc(-c2ccc(O)c(C34CC5CC(CC(C5)C3)C4)c2)cc1)Nc1ccc(O)cc1 [Compound 6]
11 | 4 µg/mL | O=C(O)/C(F)=C\c1ccc(-c2ccc(O)c(C34CC5CC(CC(C5)C3)C4)c2)cc1 [Compound 7]
12 | 2 µg/mL | C/C(=C\c1ccc(-c2ccc(O)c(C34CC5CC(CC(C5)C3)C4)c2)cc1)C(=O)O [Compound 8]
13 | 16 [16] µg/mL | O=C(O)CCc1ccc(-c2ccc(O)c(C34CC5CC(CC(C5)C3)C4)c2)cc1 [Compound 10]

Same assay, conditions: Staphylococcus aureus, MRSA, S. aureus Strain 1; modal value of three replicates; read-out: MIC

Row | MIC [µg/mL] | SMILES
14 | ≥ 32 | O=C(/C=C/c1ccc(-c2ccc(O)c(C34CC5CC(CC(C5)C3)C4)c2)cc1)NO [Compound 5]
15 | 2 to 4 | O=C(O)/C(F)=C\c1ccc(-c2ccc(O)c(C34CC5CC(CC(C5)C3)C4)c2)cc1 [Compound 7]
16 | 2 to 4 | C/C(=C\c1ccc(-c2ccc(O)c(C34CC5CC(CC(C5)C3)C4)c2)cc1)C(=O)O [Compound 8]
17 | 16 | O=C(O)CCc1ccc(-c2ccc(O)c(C34CC5CC(CC(C5)C3)C4)c2)cc1 [Compound 10]
18 | 16 | COc1cc(-c2ccc(/C=C/C(=O)O)cc2)cc(C23CC4CC(CC(C4)C2)C3)c1O [Compound 11]
19 | 4 | O=C(O)/C=C/c1ccc(-c2cc3c(c(C45CC6CC(CC(C6)C4)C5)c2)OCCO3)cc1 [Compound 12]
20 | 8 | CC(=O)NCc1cc(-c2ccc(/C=C/C(=O)O)cc2)cc(C23CC4CC(CC(C4)C2)C3)c1O [Compound 13]
21 | 64 | O=Cc1cc(-c2ccc(/C=C/C(=O)O)cc2)cc(C23CC4CC(CC(C4)C2)C3)c1O [Compound 15]

Same assay, conditions: Staphylococcus aureus, MRSA, S. aureus Strain 1; modal value; read-out: MIC

Row | MIC [µM] | SMILES
22 | 164 | O=C(/C=C/c1ccc(-c2ccc(O)c(C34CC5CC(CC(C5)C3)C4)c2)cc1)NO [Compound 5]
23 | > 549 | O=C(/C=C/c1ccc(-c2ccc(O)c(C34CC5CC(CC(C5)C3)C4)c2)cc1)Nc1ccc(O)cc1 [Compound 6]
24 | 10 | O=C(O)/C(F)=C\c1ccc(-c2ccc(O)c(C34CC5CC(CC(C5)C3)C4)c2)cc1 [Compound 7]
25 | 5 | C/C(=C\c1ccc(-c2ccc(O)c(C34CC5CC(CC(C5)C3)C4)c2)cc1)C(=O)O [Compound 8]
26 | 42 | O=C(O)CCc1ccc(-c2ccc(O)c(C34CC5CC(CC(C5)C3)C4)c2)cc1 [Compound 10]
27 | 40 | COc1cc(-c2ccc(/C=C/C(=O)O)cc2)cc(C23CC4CC(CC(C4)C2)C3)c1O [Compound 11]
28 | 9 | O=C(O)/C=C/c1ccc(-c2cc3c(c(C45CC6CC(CC(C6)C4)C5)c2)OCCO3)cc1 [Compound 12]
29 | 18 | CC(=O)NCc1cc(-c2ccc(/C=C/C(=O)O)cc2)cc(C23CC4CC(CC(C4)C2)C3)c1O [Compound 13]
30 | 159 | O=Cc1cc(-c2ccc(/C=C/C(=O)O)cc2)cc(C23CC4CC(CC(C4)C2)C3)c1O [Compound 15]

Same assay, conditions: Staphylococcus aureus, MRSA; S. aureus Strain 1; in square brackets; modal value

Row | SMILES | MBC
31 | O=C(O)/C(F)=C\c1ccc(-c2ccc(O)c(C34CC5CC(CC(C5)C3)C4)c2)cc1 [Compound 7] | 16 µg/mL and 40 µM
32 | C/C(=C\c1ccc(-c2ccc(O)c(C34CC5CC(CC(C5)C3)C4)c2)cc1)C(=O)O [Compound 8] | 8 µg/mL and 20 µM
33 | O=C(O)CCc1ccc(-c2ccc(O)c(C34CC5CC(CC(C5)C3)C4)c2)cc1 [Compound 10] | 16 µg/mL and 42 µM
34 | COc1cc(-c2ccc(/C=C/C(=O)O)cc2)cc(C23CC4CC(CC(C4)C2)C3)c1O [Compound 11] | 32 µg/mL and 80 µM
35 | CC(=O)NCc1cc(-c2ccc(/C=C/C(=O)O)cc2)cc(C23CC4CC(CC(C4)C2)C3)c1O [Compound 13] | 16 µg/mL and 36 µM

Tested on: E. faecalis strain 1 (MDR clinical isolate)
Assay: MIC/MBC by broth micro-dilution (CLSI)
Format: cell-based, Enterococcus faecalis
Conditions: Enterococcus faecalis, in square brackets, modal value
Description: as §1, §2, §3, §4
E. faecalis strain 1 (collection, MDR) vanA/B negative; aminoglycosides high-level resistant to aminoglycosides (gentamicin and streptomycin) and ampicillin.

Row | SMILES | MBC
36 | O=C(O)/C(F)=C\c1ccc(-c2ccc(O)c(C34CC5CC(CC(C5)C3)C4)c2)cc1 [Compound 7] | 16 µg/mL and 40 µM
37 | C/C(=C\c1ccc(-c2ccc(O)c(C34CC5CC(CC(C5)C3)C4)c2)cc1)C(=O)O [Compound 8] | 8 µg/mL and 21 µM
38 | O=C(O)CCc1ccc(-c2ccc(O)c(C34CC5CC(CC(C5)C3)C4)c2)cc1 [Compound 10] | 32 µg/mL and 85 µM
39 | CC(=O)NCc1cc(-c2ccc(/C=C/C(=O)O)cc2)cc(C23CC4CC(CC(C4)C2)C3)c1O [Compound 13] | 16 µg/mL and 36 µM

Same assay, conditions: Enterococcus faecalis, modal value of three replicates, read-out: MIC

Row | MIC [µg/mL] | SMILES
40 | 1 to 4 | C/C(=C\c1ccc(-c2ccc(O)c(C34CC5CC(CC(C5)C3)C4)c2)cc1)C(=O)O [Compound 8]
41 | 16 | O=C(O)CCc1ccc(-c2ccc(O)c(C34CC5CC(CC(C5)C3)C4)c2)cc1 [Compound 10]
42 | 8 | COc1cc(-c2ccc(/C=C/C(=O)O)cc2)cc(C23CC4CC(CC(C4)C2)C3)c1O [Compound 11]
43 | 2 | O=C(O)/C=C/c1ccc(-c2cc3c(c(C45CC6CC(CC(C6)C4)C5)c2)OCCO3)cc1 [Compound 12]
44 | 4 | CC(=O)NCc1cc(-c2ccc(/C=C/C(=O)O)cc2)cc(C23CC4CC(CC(C4)C2)C3)c1O [Compound 13]
45 | 64 | O=Cc1cc(-c2ccc(/C=C/C(=O)O)cc2)cc(C23CC4CC(CC(C4)C2)C3)c1O [Compound 15]

Same assay, conditions: Enterococcus faecalis, modal value, read-out: MIC

Row | MIC [µM] | SMILES
46 | > 657 | O=C(/C=C/c1ccc(-c2ccc(O)c(C34CC5CC(CC(C5)C3)C4)c2)cc1)NO [Compound 5]
47 | > 550 | O=C(/C=C/c1ccc(-c2ccc(O)c(C34CC5CC(CC(C5)C3)C4)c2)cc1)Nc1ccc(O)cc1 [Compound 6]
48 | 10 | O=C(O)/C(F)=C\c1ccc(-c2ccc(O)c(C34CC5CC(CC(C5)C3)C4)c2)cc1 [Compound 7]
49 | 3 | C/C(=C\c1ccc(-c2ccc(O)c(C34CC5CC(CC(C5)C3)C4)c2)cc1)C(=O)O [Compound 8]
50 | 42 | O=C(O)CCc1ccc(-c2ccc(O)c(C34CC5CC(CC(C5)C3)C4)c2)cc1 [Compound 10]
51 | 20 | COc1cc(-c2ccc(/C=C/C(=O)O)cc2)cc(C23CC4CC(CC(C4)C2)C3)c1O [Compound 11]
52 | 5 | O=C(O)/C=C/c1ccc(-c2cc3c(c(C45CC6CC(CC(C6)C4)C5)c2)OCCO3)cc1 [Compound 12]
53 | 9 | CC(=O)NCc1cc(-c2ccc(/C=C/C(=O)O)cc2)cc(C23CC4CC(CC(C4)C2)C3)c1O [Compound 13]
54 | 159 | O=Cc1cc(-c2ccc(/C=C/C(=O)O)cc2)cc(C23CC4CC(CC(C4)C2)C3)c1O [Compound 15]

Same assay, conditions: modal value of three replicates

Row | MIC | SMILES
55 | >= 32 µg/mL and >256 µg/mL | O=C(/C=C/c1ccc(-c2ccc(O)c(C34CC5CC(CC(C5)C3)C4)c2)cc1)NO [Compound 5]
56 | >= 32 µg/mL and >256 µg/mL | O=C(/C=C/c1ccc(-c2ccc(O)c(C34CC5CC(CC(C5)C3)C4)c2)cc1)Nc1ccc(O)cc1 [Compound 6]
57 | 1 to 4 µg/mL and 4 µg/mL | O=C(O)/C(F)=C\c1ccc(-c2ccc(O)c(C34CC5CC(CC(C5)C3)C4)c2)cc1 [Compound 7]
58 | 1 µg/mL | C/C(=C\c1ccc(-c2ccc(O)c(C34CC5CC(CC(C5)C3)C4)c2)cc1)C(=O)O [Compound 8]
59 | 16 µg/mL | O=C(O)CCc1ccc(-c2ccc(O)c(C34CC5CC(CC(C5)C3)C4)c2)cc1 [Compound 10]
